Source: article PMC7756445, “A Novel Prodrug of a nNOS Inhibitor with Improved Pharmacokinetic Potential” (Chemmedchem, 2020)

How the values were obtained:
pepsin, pancreatin = assay: Enzymatic stability in simulated fluids with pepsin or pancreatin; format: in vitro ADME; conditions: 37 °C, 2 h
Description: (§1) The effects of gastrointestinal digestion are important parameters to be taken into consideration in the determination of bioavailability and bioactivity of new compounds. In particular, the luminal instability, due to the pH or enzymatic degradation, may compromise the transmucosal transport of the prodrug designed for permeability enhancement. Therefore, in this study the chemical stability of compound 2 was assessed to exclude any undesirable degradation at acid and physiological environments. Hydrochloric acid buffer (pH 2.0) as a nonenzymatic simulated gastric fluid (SGF), and phosphate buffer (pH 7.4) as nonenzymatic simulated intestinal fluid (SIF) were employed to evaluate the chemical stability. […] For chemical stability, a 0.01 M hydrochloric acid buffer (pH 1.3) and 0.01 M phosphate buffer (pH 7.4) were used. To assess enzymatic stability, the same hydrochloric buffer with and without pepsin (10 or 40 mg/mL) and phosphate buffer with and without pancreatin (10 or 40 mg/mL) were used. […] The mixture was vortexed and centrifuged at 2 °C and 10 000 rpm, Swing‐out Rotor, for 10 min, and the content of tested compound in the supernatant was analyzed by HPLC. Experiments were run in triplicate and the mean values of the rate constants were calculated.

PAMPA-GI assay = assay: PAMPA-GI assay; design: Papp at 2 h: dose or concentration left out as unconfirmed; conditions: for Papp at 2 h: PAMPA
Description: The relative passive transcellular diffusion of compounds, expressed as permeability coefficient (Pe), was determined with a permeability equation. ^[45] The permeabilities of 1, 2, and 1400 W were determined at pH 5.0, 6.5, and 7.4 to mimic the physiological conditions of the GI tract (Table 1). […] As the new prodrug was designed for the potential treatment of neurodegenerative diseases, an important parameter is its capability to cross the BBB.
Each donor filtration plate well, carefully impregnated with 5 µL of this solution, was added of 150 μL of […] test compound buffer solutions (phosphate buffer for pH 7.4 and pH 6.5 and hydrochloric acid buffer for pH 1.4). Subsequently, the drug‐filled donor plate was placed onto the acceptor plate prefilled with the same buffer (300 μL) as the acceptor solution. Once replaced the plate lid, the resulting assembled donor‐acceptor plates were incubated at room temperature for 2 h. The concentration in the acceptor and donor solutions were determined by HPLC. The Pe was determined as previously reported. ^[47]

B5 and B5R = molecular target: T1, B5 and B5R (Homo sapiens, UniProt O43169+P00387); assay: Bioconversion control experiment without mARC; format: in vitro ADME; conditions: B5 and B5R only, no mARC; NADH assay
T1 sequence (O43169 16-150): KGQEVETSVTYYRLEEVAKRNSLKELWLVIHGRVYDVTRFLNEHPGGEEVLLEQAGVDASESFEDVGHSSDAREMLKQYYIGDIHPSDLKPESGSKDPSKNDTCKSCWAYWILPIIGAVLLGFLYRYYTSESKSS
T1 sequence (P00387 24-301 limits assumed): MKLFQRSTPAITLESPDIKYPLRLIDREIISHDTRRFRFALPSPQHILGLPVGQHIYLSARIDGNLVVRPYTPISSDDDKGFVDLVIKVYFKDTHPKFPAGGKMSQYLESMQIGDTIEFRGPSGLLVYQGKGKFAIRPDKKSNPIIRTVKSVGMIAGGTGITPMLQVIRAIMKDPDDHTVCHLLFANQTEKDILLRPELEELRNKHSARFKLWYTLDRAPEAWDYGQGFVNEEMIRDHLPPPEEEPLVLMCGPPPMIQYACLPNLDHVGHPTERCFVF

[1] = Chemical stability in nonenzymatic simulated gastric and intestinal fluids; format: physicochemical; conditions: 2 h
Description: as §1

C/C(=N\O)NC(c1ccccc1)c1ccccc1 [Compound 2, (1E)‐N‐(diphenylmethyl)‐N′‐hydroxyethanimidamide]
enzymatic stability in SGF with pepsin (pepsin, pancreatin; pH 1.3, pepsin 10 or 40 mg/mL): stable | enzymatic stability in SIF with pancreatin (pepsin, pancreatin; pH 7.4, pancreatin 10 or 40 mg/mL): stable | Papp at 2 h (PAMPA-GI assay; pH 1.4): 6.6 nm/s | Papp at 2 h (PAMPA-GI assay; pH 6.5): 15.7 nm/s | Papp at 2 h (PAMPA-GI assay; pH 7.4): 20.3 nm/s | PAMPA-GI Pe (bound stated in text) (PAMPA-GI assay; pH 6.5): > 1.5×10^−6 | PAMPA-GI Pe (bound stated in text) (PAMPA-GI assay; pH 7.4): > 1.5×10^−6 | conversion to the amidine 1 in control experiment (B5 and B5R): no conversion | chemical stability in nonenzymatic simulated gastric fluid (SGF) ([1]; hydrochloric acid buffer pH 2.0 (method: pH 1.3), 37 °C): stable | chemical stability in nonenzymatic simulated intestinal fluid (SIF) ([1]; phosphate buffer pH 7.4, 37 °C): stable
